pIC50: −log10 of the molar value.
Experiments:
Assay in all cases: cells
Design in all cases: Oncolines panel cell viability, ATPlite 1Step luminescence, duplicate 9-point dose response, IC50
TCCSUP = settings: Homo sapiens, TCC-SUP; 72 h viability; read-out: SJ3149
T24 = settings: Homo sapiens, T-24; 72 h viability; read-out: SJ3149
DB = settings: Homo sapiens, DB; 72 h viability; read-out: SJ3149
K-562 = settings: Homo sapiens, K562; 72 h viability; read-out: SJ3149
NCI-H661 = settings: Homo sapiens, NCI-H661; 72 h viability; read-out: SJ3149
PL-21 = settings: PL-21; 72 h viability; read-out: SJ3149
SW480 = settings: Homo sapiens, SW480; 72 h viability; read-out: SJ3149
786-O = settings: Homo sapiens, 786-0; 72 h viability; read-out: SJ3149
U-87 MG = settings: Homo sapiens, U-87 MG; 72 h viability; read-out: SJ3149
SNU-C2B = settings: Homo sapiens, SNU-C2B; 72 h viability; read-out: SJ3149
C-33 A = settings: Homo sapiens, C-33-A; 72 h viability; read-out: SJ3149
J82 = settings: Homo sapiens, J82; 72 h viability; read-out: SJ3149

Measured: pIC50

O=C1CCC(N2Cc3cc(Nc4noc5ccccc45)ccc3C2=O)C(=O)N1 (stereo not drawn) [SJ3149]
< 4.50: all assays above
